# According to patent publication US20210401867A1, “PHOTOSENSITIZERS AND METHOD OF TREATING CANCER USING THE SAME” (Cheng-Wen Wu, priority 2018, published 2021):
# Assays:
# FaDu-RFP+ cells = assay: in vivo IdU incorporation rate in FaDu-RFP+ solid tumors (flow cytometry); design: species or system mouse
# From the text: An injection concentration of IdU is selected based on a flow cytometry analysis on the incorporation rate of IdU in tumor cells. Referring to FIG. 13A, a schematic diagram of an in vivo animal experiment for determining an injection concentration of IdU is provided in accordance with an exemplary embodiment of the present disclosure. FaDu cells are marked with RFP (red fluorescent protein) and […]. The malignant solid tumors formed by FaDu-RFP+ cells on the tumorigenic mouse are injected with different concentrations of IdU: 100 μg, 50 μg, 20 μg, 10 μg, 5 μg, or 2 μg per 100 μl PBS. 4 hours later, the tumorigenic mouse are sacrificed and the solid tumors are isolated to single cells. The single cells from the solid tumors are then subjected to antibody staining and flow cytometry analyses. Referring to FIG. 13B, a flow cytometry result of the experiments described by FIG. 13A, is provided in accordance with an exemplary embodiment of the present disclosure. The horizontal axis represents the RFP signals, and the vertical axis represents the GFP signals. […] Only 6.232% of FaDu cells are detected with GFP in the left panel of FIG. 13B. The right panel of FIG. 13B are FaDu cells treated with 50 μg of IdU, an area 132 is FaDu cells detected with GFP signals. 19.088% of FaDu cells are detected with GFP signals in the right panel of FIG. 13B. […]
# [1] = test system: subcutaneous malignant solid tumor comprised of FaDu cells; assay: in vivo tumor growth of subcutaneous FaDu solid tumor on tumorigenic mice; settings: for tumor growth inhibition rate: end of the in vivo test; for relative proliferation rate of solid tumor: repeated after 7 days
# Description: FIG. 12 is a schematic diagram of an in vivo animal experiment, in accordance with an exemplary embodiment of the present disclosure. A subcutaneous malignant solid tumor comprised of FaDu cells (tumor size is about 200 mm^3) on the tumorigenic mice is injected with 0.5 μg/μl of IdU. 4 hours after the injection, the solid tumor is then irradiated by 4 Gy 33 keV NR. The IdU-NR treatment are repeated on the same tumor after 7 days. Other groups of mouse are only injected with 50 μg of IdU or only irradiated with 4 Gy 33 keV NR, and the IdU injection or the NR irradiation is repeated on the same tumor after 7 days. The control group is the mice without NR, IdU, or IdU-NR treatment.
# The subcutaneous malignant solid tumor comprised of FaDu cells on the tumorigenic mice is treated with IdU, NR, or IdU and NR, following the same experiment procedure as depicted in FIG. 12. The relative proliferation rates of the solid tumors are calculated by measuring the size of the solid tumor on Days 3, 7, 10, 14, 17, 21, 24, and 28, respectively. […] The solid tumor of IdU-NR group has the lowest relative proliferation rate among other groups, and the relative proliferation rate of IdU-NR group is even lower than 100% (p<0.05), this indicates the tumor size is smaller after the IdU and NR treatment.
# To further investigate a therapeutically effective dosage for the combination of IdU and NR, another series of in vivo experiments are conducted, see FIGS. 15A-15F. The experiment procedure is the same with the procedure described in FIG. 12. FIG. 15A and FIG. 15B show cells irradiated with 2.25 Gy NR and 2.25 Gy RS2000, FIG. 15C and FIG. 15D show cells irradiated with 4.5 Gy NR and 4.5 Gy RS2000, and FIG. 15E and FIG. 15F show cells irradiated with 9 Gy NR and 9 Gy RS2000, in accordance with exemplary embodiments of the present disclosure. Control groups in FIGS. 15A-15F are FaDu cells isolated from the subcutaneous solid tumor of the tumorigenic mouse without treatment of IdU or any radiation. The tumor growth index in FIGS. 15A-15F are calculated based on tumor volumes: for each of the tumorigenic mouse, the tumor volume on Day 0 is set as 100%, and relative volume percentages in the following days relative to Day 0 are presented as the tumor growth index (%).
# CASPASE-3 = assay: immunohistochemical (IHC) examination of subcutaneous FaDu tumor cells; format: in vivo, mouse; settings: 1 day after treatment
# Description: One day after the tumorigenic mouse are treated with IdU, or the combination of IdU and 4.5 Gy of NR/RS2000, the subcutaneous FaDu tumor cells are subjected to immunohistochemical (IHC) examination. […] The control group in FIGS. 15A-15F or FIGS. 16A-16B is the subcutaneous FaDu tumor cells without any treatment. […] CASPASE-3 is directly involved in apoptosis, therefore the combination of IdU and NR is proven to induce tumor growth inhibition.
# γH2AX = assay: Western blotting for pATM, γH2AX and c-CASP3 in FaDu cells; format: cell-based, human; settings: 10 μM IdU and 2 Gy of NR, 30 minutes after irradiation, among all treatments
# Description: To investigate the mechanism associated with the combination of IdU and NR in the Auger molecular therapy, molecular markers involving DNA damage and apoptosis are analyzed. In vitro FaDu cells are treated with 10 μM of IdU, and irradiated by 2Gy of NR or RS2000. 30 minutes after above treatments, FaDu cells are subjected to Western blot to determine the expression of several proteins relevant to DNA damage and apoptosis: phosphor-ATM (pATM) is a protein kinase activated by DNA double-strand-breaks (DSBs), and it phosphorylates several key factors to initiate DNA damage checkpoint and repair; γH2AX is one of the targets of pATM, and it forms the foundation of chromatin-based signaling cascades at DSBs sites, and it is widely considered as a highly specific and sensitive marker for quantitative evaluation of DSB; and CASP3 is a marker for increased apoptosis, wherein c-CASP3 is a cleaved CASP3 formed when apoptotic signals are present in the cell. The subcutaneous tumor also subjected to Western blot 3 days after the above treatments.
# FIGS. 17A and 17B are results of Western blotting for protein expression levels of pATM, γH2AX, and c-CASP3, in accordance with exemplary embodiments of the present disclosure. FIG. 17A is the result at 30 minutes after irradiation, and FIG. 17B is the result at 3 days after irradiation, wherein β-ACTIN are served as an internal control in both figures. […]
compound,measurement,setting,value
"O=c1[nH]c(=O)n([C@H]2C[C@H](O)[C@@H](CO)O2)cc1I [IdU, iododeoxyuridine]",IdU incorporation rate among injected concentrations,"FaDu-RFP+ cells; 50 μg IdU/100 μl PBS versus 100, 20, 10, 5, 2 μg",best IdU incorporation rate
same,FaDu cells detected with GFP signals (IdU incorporation),"FaDu-RFP+ cells; 50 μg of IdU injected into tumor, 4 hours",19.088%
same,tumor growth inhibition rate,[1]; IdU 50 μg and 4.5 Gy NR,68%
same,tumor growth inhibition rate,[1]; IdU 50 μg and 9 Gy NR,83%
same,tumor growth versus RS2000 only,"[1]; IdU 50 μg and RS2000 (2.25, 4.5, 9 Gy)",does not significantly inhibit the tumor growth
same,relative proliferation rate of solid tumor,"[1]; IdU-NR group, 0.5 μg/μl IdU plus 4 Gy 33 keV NR, p<0.05",lower than 100%
same,relative proliferation rate of solid tumor,"[1]; IdU-only group, 50 μg of IdU, to Day 28",lower relative proliferation rate than the control group
same,tumor growth (tumor growth index),"[1]; treated only with IdU, 50 μg",not inhibited
same,"apoptotic cells (IHC, qualitative)","CASPASE-3; IdU and 4.5 Gy of NR, versus other groups",more apoptotic cells
same,"CASPASE-3 expression in the tumor cells (IHC, quantitative)","CASPASE-3; IdU and NR, versus other treatments",more pronounced CASPASE-3 expression
same,γH2AX expression (Western blot),γH2AX,most γH2AX expression
